Assay results taken from ChEMBL document CHEMBL1201862, “PubChem BioAssay data set” (2004).
Values joined by “and” are separate entries in the source; they are usually repeats but may differ in a detail not shown here. Equal entries are not always repeated.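 How tested: cells in 96-well plates exposed to compound for 48 hours at five concentrations. GI50 = concentration required for 50% inhibition of growth.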 Active and inactive are the calls of the source. Cut-off read from the data, not from the text of the source: active = GI50 up to about 1.1 µM and inactive = higher.

How the values were obtained:
Experiment in all cases: inhibition of tumour cell growth, NCI panel, 48 h
NCI-H522 = system: NCI-H522
SF-295 = system: SF-295
SNB-75 = system: SNB-75
EKVX = system: EKVX
HOP-62 = system: HOP-62
PC-3 = system: PC-3
Malme-3M = system: Malme-3M
DU-145 = system: DU-145
OVCAR-3 = system: OVCAR-3
786-0 = system: 786-0
COLO 205 = system: COLO 205
IGROV-1 = system: IGROV-1
HOP-92 = system: HOP-92
U-251 = system: U-251
MOLT-4 = system: MOLT-4
HCC 2998 = system: HCC 2998
T47D = system: T47D
OVCAR-4 = system: OVCAR-4
NCI-H226 = system: NCI-H226
HT-29 = system: HT-29
LOX IMVI = system: LOX IMVI
A498 = system: A498
MDA-MB-435 = system: MDA-MB-435
SN12C = system: SN12C
CCRF-CEM = system: CCRF-CEM
BT-549 = system: BT-549
SF-539 = system: SF-539
SK-MEL-5 = system: SK-MEL-5
MDA-N = system: MDA-N
NCI-H460 = system: NCI-H460
SK-OV-3 = system: SK-OV-3
SK-MEL-2 = system: SK-MEL-2
KM12 = system: KM12
RXF 393 = system: RXF 393
M14 = system: M14
HCT-116 = system: HCT-116
RPMI-8226 = system: RPMI-8226
MCF7 = system: MCF7
SF-268 = system: SF-268
OVCAR-8 = system: OVCAR-8
UACC-257 = system: UACC-257
UO-31 = system: UO-31
HCT-15 = system: HCT-15
NCI-H23 = system: NCI-H23
NCI/ADR-RES = system: NCI/ADR-RES
A549 = system: A549
ACHN = system: ACHN
K562 = system: K562
OVCAR-5 = system: OVCAR-5
HL-60 = system: HL-60
SNB-19 = system: SNB-19
CAKI-1 = system: CAKI-1
SW-620 = system: SW-620
UACC-62 = system: UACC-62
SR = system: SR
MDA-MB-231 = system: MDA-MB-231
Hs-578T = system: Hs-578T
SK-MEL-28 = system: SK-MEL-28
TK-10 = system: TK-10

## O=S(=O)(c1ccc(-c2nnc(-c3ccc(F)cc3)o2)cc1)c1ccc(-c2nnc(-c3ccc(F)cc3)o2)cc1
NCI-H522
  GI50: > 100 µM (inactive)
SF-295
  GI50: 55.3 µM (inactive)
SNB-75
  GI50: 11.1 µM (inactive)
EKVX
  GI50: > 100 µM (inactive)
HOP-62
  GI50: 27 µM (inactive)
PC-3
  GI50: > 100 µM (inactive)
Malme-3M
  GI50: > 100 µM (inactive)
DU-145
  GI50: > 100 µM (inactive)
OVCAR-3
  GI50: > 100 µM (inactive)
786-0
  GI50: 26.8 µM (inactive)
COLO 205
  GI50: > 100 µM (inactive)
IGROV-1
  GI50: > 100 µM (inactive)
HOP-92
  GI50: 82.4 µM (inactive)
U-251
  GI50: 21.7 µM (inactive)
MOLT-4
  GI50: > 100 µM (inactive)
HCC 2998
  GI50: > 100 µM (inactive)
T47D
  GI50: > 100 µM (inactive)
OVCAR-4
  GI50: > 100 µM (inactive)
NCI-H226
  GI50: 61.5 µM (inactive)
HT-29
  GI50: > 100 µM (inactive)
LOX IMVI
  GI50: > 100 µM (inactive)
A498
  GI50: 25.5 µM (inactive)
MDA-MB-435
  GI50: > 100 µM (inactive)
SN12C
  GI50: > 100 µM (inactive)
CCRF-CEM
  GI50: > 100 µM (inactive)
BT-549
  GI50: 91 µM (inactive)
SF-539
  GI50: 50.4 µM (inactive)
SK-MEL-5
  GI50: > 100 µM (inactive)
MDA-N
  GI50: > 100 µM (inactive)
NCI-H460
  GI50: > 100 µM (inactive)
SK-OV-3
  GI50: 30.4 µM (inactive)
SK-MEL-2
  GI50: > 100 µM (inactive)
KM12
  GI50: > 100 µM (inactive)
RXF 393
  GI50: 22.2 µM (inactive)
M14
  GI50: > 100 µM (inactive)
HCT-116
  GI50: > 100 µM (inactive)
RPMI-8226
  GI50: > 100 µM (inactive)
MCF7
  GI50: > 100 µM (inactive)
SF-268
  GI50: > 100 µM (inactive)
OVCAR-8
  GI50: > 100 µM (inactive)
UACC-257
  GI50: > 100 µM (inactive)
UO-31
  GI50: > 100 µM (inactive)
HCT-15
  GI50: > 100 µM
NCI-H23
  GI50: > 100 µM (inactive)
NCI/ADR-RES
  GI50: > 100 µM (inactive)
A549
  GI50: > 100 µM (inactive)
ACHN
  GI50: 14.7 µM (inactive)
K562
  GI50: > 100 µM (inactive)
OVCAR-5
  GI50: > 100 µM (inactive)
HL-60
  GI50: > 100 µM (inactive)
SNB-19
  GI50: 34.6 µM (inactive)
CAKI-1
  GI50: > 100 µM (inactive)
SW-620
  GI50: > 100 µM (inactive)
UACC-62
  GI50: > 100 µM (inactive)

## COc1ccc(-c2[nH]c(=O)n(C3OC(CO)C(O)C(O)C3O)c(=O)c2C#N)cc1 (stereo not drawn)
NCI-H522
  GI50: > 100 µM (inactive)
SF-295
  GI50: > 100 µM (inactive)
SR
  GI50: > 100 µM (inactive)
SNB-75
  GI50: > 100 µM (inactive)
EKVX
  GI50: > 100 µM (inactive)
HOP-62
  GI50: > 100 µM (inactive)
PC-3
  GI50: > 100 µM (inactive)
DU-145
  GI50: > 100 µM (inactive)
OVCAR-3
  GI50: > 100 µM (inactive)
786-0
  GI50: > 100 µM (inactive)
COLO 205
  GI50: > 100 µM (inactive)
IGROV-1
  GI50: > 100 µM (inactive) and 86.1 µM (inactive)
HOP-92
  GI50: > 100 µM (inactive)
U-251
  GI50: > 100 µM (inactive)
MOLT-4
  GI50: > 100 µM (inactive)
HCC 2998
  GI50: > 100 µM (inactive)
MDA-MB-231
  GI50: > 100 µM (inactive) and 81.5 µM (inactive)
Hs-578T
  GI50: > 100 µM (inactive)
T47D
  GI50: > 100 µM (inactive)
OVCAR-4
  GI50: > 100 µM (inactive)
NCI-H226
  GI50: > 100 µM (inactive)
HT-29
  GI50: > 100 µM (inactive)
A498
  GI50: > 100 µM (inactive)
MDA-MB-435
  GI50: > 100 µM (inactive)
SN12C
  GI50: > 100 µM (inactive)
SK-MEL-28
  GI50: > 100 µM (inactive)
TK-10
  GI50: > 100 µM (inactive)
CCRF-CEM
  GI50: > 100 µM (inactive)
BT-549
  GI50: > 100 µM (inactive)
SF-539
  GI50: > 100 µM (inactive)
SK-MEL-5
  GI50: > 100 µM (inactive)
NCI-H460
  GI50: > 100 µM (inactive)
SK-OV-3
  GI50: > 100 µM (inactive)
SK-MEL-2
  GI50: > 100 µM (inactive)
KM12
  GI50: > 100 µM (inactive)
RXF 393
  GI50: > 100 µM (inactive)
M14
  GI50: > 100 µM (inactive)
HCT-116
  GI50: > 100 µM (inactive)
RPMI-8226
  GI50: > 100 µM (inactive)
MCF7
  GI50: > 100 µM (inactive)
SF-268
  GI50: > 100 µM (inactive)
OVCAR-8
  GI50: > 100 µM (inactive)
UACC-257
  GI50: > 100 µM (inactive)
UO-31
  GI50: > 100 µM (inactive)
HCT-15
  GI50: > 100 µM
NCI-H23
  GI50: > 100 µM (inactive)
NCI/ADR-RES
  GI50: > 100 µM (inactive)
A549
  GI50: > 100 µM (inactive)
ACHN
  GI50: > 100 µM (inactive)
K562
  GI50: > 100 µM (inactive)
OVCAR-5
  GI50: > 100 µM (inactive)
SNB-19
  GI50: > 100 µM (inactive)
CAKI-1
  GI50: > 100 µM (inactive)
SW-620
  GI50: > 100 µM (inactive)
UACC-62
  GI50: > 100 µM (inactive)

## CN(c1ccccc1Cl)S(=O)(=O)c1ccccc1
NCI-H522
  GI50: > 100 µM (inactive)
SF-295
  GI50: > 100 µM (inactive)
SR
  GI50: 55.8 µM (inactive)
SNB-75
  GI50: > 100 µM (inactive)
EKVX
  GI50: 50.4 µM (inactive)
HOP-62
  GI50: > 100 µM (inactive)
PC-3
  GI50: 44.3 µM (inactive)
Malme-3M
  GI50: > 100 µM (inactive)
DU-145
  GI50: > 100 µM (inactive)
OVCAR-3
  GI50: > 100 µM (inactive)
786-0
  GI50: > 100 µM (inactive)
COLO 205
  GI50: > 100 µM (inactive)
IGROV-1
  GI50: > 100 µM (inactive)
U-251
  GI50: > 100 µM (inactive)
MOLT-4
  GI50: 45 µM (inactive)
MDA-MB-231
  GI50: 81.5 µM (inactive)
Hs-578T
  GI50: 68.5 µM (inactive)
OVCAR-4
  GI50: > 100 µM (inactive)
NCI-H226
  GI50: > 100 µM (inactive)
HT-29
  GI50: > 100 µM (inactive)
LOX IMVI
  GI50: > 100 µM (inactive)
MDA-MB-435
  GI50: 76.6 µM (inactive)
SN12C
  GI50: > 100 µM (inactive)
SK-MEL-28
  GI50: > 100 µM (inactive)
TK-10
  GI50: > 100 µM (inactive)
CCRF-CEM
  GI50: > 100 µM (inactive)
BT-549
  GI50: 56.2 µM (inactive)
SF-539
  GI50: > 100 µM (inactive)
SK-MEL-5
  GI50: 34.9 µM (inactive)
MDA-N
  GI50: > 100 µM (inactive)
NCI-H460
  GI50: > 100 µM (inactive)
SK-OV-3
  GI50: 93.1 µM (inactive)
SK-MEL-2
  GI50: > 100 µM (inactive)
KM12
  GI50: > 100 µM (inactive)
M14
  GI50: > 100 µM (inactive)
HCT-116
  GI50: 82.4 µM (inactive)
RPMI-8226
  GI50: > 100 µM (inactive)
MCF7
  GI50: > 100 µM (inactive)
SF-268
  GI50: > 100 µM (inactive)
OVCAR-8
  GI50: > 100 µM (inactive)
UACC-257
  GI50: > 100 µM (inactive)
UO-31
  GI50: 52.4 µM (inactive)
HCT-15
  GI50: > 100 µM
NCI-H23
  GI50: 54.5 µM (inactive)
NCI/ADR-RES
  GI50: > 100 µM (inactive)
A549
  GI50: > 100 µM (inactive)
ACHN
  GI50: > 100 µM (inactive)
K562
  GI50: 51.8 µM (inactive)
OVCAR-5
  GI50: > 100 µM (inactive)
HL-60
  GI50: 14.6 µM (inactive)
SNB-19
  GI50: > 100 µM (inactive)
CAKI-1
  GI50: > 100 µM (inactive)
SW-620
  GI50: > 100 µM (inactive)
UACC-62
  GI50: > 100 µM (inactive)
